Bridge positions count the residues as written; N and C are the ends. Square brackets hold non-standard residues; d marks the D form. Peptide text beside a SMILES is read from it. * marks the point of attachment. Benzoyl(3-Ph) = O=C(c1cccc(-c2ccccc2)c1)*; Benzoyl(4-Ph) = O=C(c1ccc(-c2ccccc2)cc1)*; X9 = N#Cc1ccc(-c2cc(C(=O)*)ccc2F)nc1; X25 = O=C(c1ccc(Cl)c(-c2ccccn2)c1)*; X26 = O=C(c1ccnc(-c2ccc(Cl)cc2)c1)*; X10 = COc1nc(-c2ccccc2)ccc1C(=O)*; X39 = COc1ccc(C(=O)*)cc1-c1ccccc1; X23 = O=C(c1cnnc(-c2ccccc2)c1)*; X14 = CC(C)c1cccc(C(=O)*)c1; Dab = NCC[C@H](N)C(=O)O; Dap = NC[C@H](N)C(=O)O
Legend:
[1] = test system: PA-1646, polymyxin-resistant clinical isolate of Pseudomonas aeruginosa; type: cell-based; details: PA-1646, polymyxin-resistant clinical isolate of
Experimental: (§1) Minimum bactericidal concentration (MBC, mg/L), minimum inhibitory concentration (MIC, mg/L), and human renal proximal tubule epithelial cell line cytotoxicity concentration 50% (hRPTEC, TC50, micromolar) for compounds of Formula I are listed in Table 2. The compounds of Formula I were tested as the corresponding trifluoroacetate salt except for Example 1 which was tested as the sulfate salt. For Table 2 below: PMB=polymyxin B as the sulfate salt (Bedford Laboratories, pharmaceutical grade); PMB1=polymyxin B1 as the trifluoroacetate salt; Nona=polymyxin B nonapeptide as the trifluoroacetate salt. PMB1 and Nona were prepared using the solid phase methodology described in the experimental section herein.
(§2) The in vitro antibacterial activity of compounds of Formula I was evaluated by MIC testing according to Clinical and Laboratory Standards Institute (CLSI). See: Clinical and Laboratory Standards Institute. Methods for Dilution Antimicrobial Susceptibility Tests for Bacteria that Grow Aerobically; Approved Standard-Eighth Edition. CLSI document M7-A8 [ISBN 1-56238-689-1]. Clinical and Laboratory Standards Institute, 940 West Valley Road, Suite 1400, Wayne, Pa. 19087-1898 USA, 2006; also Clinical and Laboratory Standards Institute. Performance Standards for Antimicrobial Susceptibility Testing; Twentieth Informational Supplement. CLSI document M100-S20 [ISBN 1-56238-716-2]. Clinical and Laboratory Standards Institute. Methods for Determining Bactericidal Activity of Antimicrobial Agents; Approved Guideline. CLSI document M26-A (ISBN 1-56238-384-1). CLSI, 940 West Valley Road, Suite 1400, Wayne, Pa. 19087-1898 USA, 1999.
PA-1646 is a polymyxin-resistant clinical isolate of Pseudomonas aeruginosa obtained from JMI labs (www.jmilabs.com);

[2] = test system: AB-1649, polymyxin-resistant clinical isolate of Acinetobacter baumannii; type: cell-based; details: AB-1649, polymyxin-resistant clinical isolate of
Experimental: as §1, §2
(§3) The MIC determination is a standard laboratory method for evaluating the antibacterial activity of a compound. The MIC represents the lowest drug concentration that inhibits visible growth of bacteria following overnight incubation. […] Typically, the drug concentration range is broken down into 2-fold increments (e.g. 0.06 mg/L, 0.12 mg/L, 0.25 mg/L, 0.50 mg/L, 1.0 mg/L, etc.) and the various drug concentrations are all individually incubated overnight with approximately the same number of bacteria. The MIC is then determined by visually inspecting the drug effect at each concentration, and identifying the lowest drug concentration that has inhibited bacterial growth as compared to the drug free control. Typically, bacteria continue to grow at drug concentrations lower than the MIC and don't grow at concentrations at and above the MIC.
(§4) The MIC values described in Table 2 below were derived from assays wherein each test compound was evaluated in duplicate. In cases where the duplicate values varied by 0-2-fold, the lower of the two values was reported below. Generally speaking, if the duplicate values varied by more than 2-fold, the assay was considered non-valid and was repeated until the variation between duplicate runs was ≦2-fold. In line with the CLSI guidelines referred to above, both control organisms and reference compounds were utilized in each MIC assay to provide proper quality control. MIC values generated with these control organisms and reference compounds were required to fall within a defined range for the assay to be considered valid and be included herein. Those skilled in the art will recognize that MIC values can and do vary from experiment to experiment. Generally speaking, it should be recognized that MIC values often vary +/−2-fold from experiment to experiment. While a single MIC is reported for each compound and each microorganism, the reader should not conclude that each compound was only tested once. Several of the compounds were subjected to multiple tests. The data reported in Table 2 is reflective of the compounds relative activity and different MICs may have been generated on these occasions in line with the guidelines described above.
(§5) The following bacterial strains were used in these MIC determinations: […]

[3] = test system: AB-3167, clinical isolate of Acinetobacter baumannii; type: cell-based; details: AB-3167, clinical isolate of
Experimental: as §1, §2, §3, §4, §5

[4] = test system: PA-1646, polymyxin-resistant clinical isolate of Pseudomonas aeruginosa; type: cell-based; details: PA-1646, polymyxin-resistant clinical isolate of; remark: listed apart in the source
Experimental: as §1, §2, §3, §4, §5

[5] = test system: Pseudomonas aeruginosa strain PA01; type: cell-based; details: strain
Experimental: as §1, §2, §3, §4, §5

[6] = test system: AB-1649, polymyxin-resistant clinical isolate of Acinetobacter baumannii; type: cell-based; details: AB-1649, polymyxin-resistant clinical isolate of; remark: listed apart in the source
Experimental: as §1, §2
AB-1649 is a polymyxin-resistant clinical isolate of Acinetobacter baumannii obtained from JMI labs (www.jmilabs.com);

[7] = test system: EC-1, mouse virulent strain of Escherichia coli; type: cell-based; details: E. coli EC-1; overnight incubation, lower of duplicate values; trifluoroacetate salt (Example 1 and PMB sulfate)
Experimental: as §1, §2, §3, §4
The following bacterial strains were used in these MIC determinations:
EC-1 is a mouse virulent strain of Escherichia coli.

[8] = Cytotoxicity assay (LDH release), hRPTEC; type: cell-based, human; details: human
Experimental: as §1
Human Renal Proximal Tubule Epithelial cells (hRPTEC) were obtained from Lonza (Walkersville, Md., USA) and cultured in REGM (Renal Epithelial Cell Basal Medium supplemented with human epithelial growth factor, hydrocortisone, epinephrine, insulin, triiodothyronine, transferrin, gentamycin/amphotericin-B, and fetal bovine serum). The hRPTEC cells were seeded into 96-well plates and incubated at 37° C. in 5% CO2. Following a growth period of 72 hours, cells were treated with compounds at 100, 67, 44, 30, 20 and 13 micromolar for 24 hours at 37° C. in 5% CO2. The cell supernatant was then harvested for determination of LDH (lactate dehydrogenase) production. The Cytotoxicity Detection Kit from Roche was used for the measurement of LDH activity released from damaged cells. The Toxic Concentration 50% (TC50, micromolar) values were determined for each compound and compared to the control compounds (polymyxin B was used as a positive control and polymyxin B nonapepetide was used as negative control).

Row | SMILES | PA-1646 MBC [1] [µg/mL] | AB-1649 MIC [2] [µg/mL] | AB-3167 MIC [3] [µg/mL] | PA-1646 MIC [4] [µg/mL] | PA01 MIC [5] [µg/mL] | AB-1649 MBC [6] [µg/mL] | EC-1 MIC [7] [µg/mL] | CC50 at 24 h [8] [µM]
1 | COc1ccc(C(=O)N[C@@H](CCN)C(=O)N[C@H](C(=O)N[C@@H](CN)C(=O)N[C@H]2CCNC(=O)[C@H]([C@@H](C)O)NC(=O)[C@H](CCN)NC(=O)[C@H](CCN)NC(=O)[C@H](CC(C)C)NC(=O)[C@@H](Cc3ccccc3)NC(=O)[C@H](CCN)NC2=O)[C@@H](C)O)cc1-c1ccccc1 [Example 16] (X39-[Dab]T[Dap][Dab][Dab][dF]L[Dab][Dab]T; lactam 4-C) | 2 | 2 | 0.5 | 1 | 0.5 | 2 | 0.25 | 27
2 | CC(C)C[C@@H]1NC(=O)[C@@H](Cc2ccccc2)NC(=O)[C@H](CCN)NC(=O)[C@@H](NC(=O)[C@H](CN)NC(=O)[C@@H](NC(=O)[C@H](CCN)NC(=O)c2ccc(Cl)c(-c3ccccn3)c2)[C@@H](C)O)CCNC(=O)[C@H]([C@@H](C)O)NC(=O)[C@H](CCN)NC(=O)[C@H](CCN)NC1=O [Example 28] (X25-[Dab]T[Dap][Dab][Dab][dF]L[Dab][Dab]T; lactam 4-C) | 16 | 4 | 0.25 | 4 | 1 | 4 | 0.25 | 72
3 | CC(C)C[C@@H]1NC(=O)[C@@H](Cc2ccccc2)NC(=O)[C@H](CCN)NC(=O)[C@@H](NC(=O)[C@H](CN)NC(=O)[C@@H](NC(=O)[C@H](CCN)NC(=O)c2cccc(C(C)C)c2)[C@@H](C)O)CCNC(=O)[C@H]([C@@H](C)O)NC(=O)[C@H](CCN)NC(=O)[C@H](CCN)NC1=O [Example 25] (X14-[Dab]T[Dap][Dab][Dab][dF]L[Dab][Dab]T; lactam 4-C) | 16 | 4 | 0.25 | 4 | 1 | 4 | 0.25 | 88
4 | CC(C)C[C@@H]1NC(=O)[C@@H](Cc2ccccc2)NC(=O)[C@H](CCN)NC(=O)[C@@H](NC(=O)[C@H](CN)NC(=O)[C@@H](NC(=O)[C@H](CCN)NC(=O)c2ccc(-c3ccccc3)cc2)[C@@H](C)O)CCNC(=O)[C@H]([C@@H](C)O)NC(=O)[C@H](CCN)NC(=O)[C@H](CCN)NC1=O [Example 45] ({Benzoyl(4-Ph)}-[Dab]T[Dap][Dab][Dab][dF]L[Dab][Dab]T; lactam 4-C) | 1 | 1 | 0.25 | 0.5 | 0.5 | 1 | 0.25 | 28
5 | CC(C)C[C@@H]1NC(=O)[C@@H](Cc2ccccc2)NC(=O)[C@H](CCN)NC(=O)[C@@H](NC(=O)[C@H](CN)NC(=O)[C@@H](NC(=O)[C@H](CCN)NC(=O)c2cccc(-c3ccccc3)c2)[C@@H](C)O)CCNC(=O)[C@H]([C@@H](C)O)NC(=O)[C@H](CCN)NC(=O)[C@H](CCN)NC1=O [Example 19] ({Benzoyl(3-Ph)}-[Dab]T[Dap][Dab][Dab][dF]L[Dab][Dab]T; lactam 4-C) | 2 | 2 | 0.25 | 1 | 0.5 | 2 | 0.25 | 21
6 | COc1nc(-c2ccccc2)ccc1C(=O)N[C@@H](CCN)C(=O)N[C@H](C(=O)N[C@@H](CN)C(=O)N[C@H]1CCNC(=O)[C@H]([C@@H](C)O)NC(=O)[C@H](CCN)NC(=O)[C@H](CCN)NC(=O)[C@H](CC(C)C)NC(=O)[C@@H](Cc2ccccc2)NC(=O)[C@H](CCN)NC1=O)[C@@H](C)O [Example 38] (X10-[Dab]T[Dap][Dab][Dab][dF]L[Dab][Dab]T; lactam 4-C) | 1 | 4 | 0.25 | 1 | 1 | 4 | 0.25 | 16
7 | CC(C)C[C@@H]1NC(=O)[C@@H](Cc2ccccc2)NC(=O)[C@H](CCN)NC(=O)[C@@H](NC(=O)[C@H](CN)NC(=O)[C@@H](NC(=O)[C@H](CCN)NC(=O)c2ccnc(-c3ccc(Cl)cc3)c2)[C@@H](C)O)CCNC(=O)[C@H]([C@@H](C)O)NC(=O)[C@H](CCN)NC(=O)[C@H](CCN)NC1=O [Example 44] (X26-[Dab]T[Dap][Dab][Dab][dF]L[Dab][Dab]T; lactam 4-C) | 1 | 1 | 0.25 | 1 | 0.5 | 1 | 0.25 | 30
8 | CC(C)C[C@@H]1NC(=O)[C@@H](Cc2ccccc2)NC(=O)[C@H](CCN)NC(=O)[C@@H](NC(=O)[C@H](CN)NC(=O)[C@@H](NC(=O)[C@H](CCN)NC(=O)c2cnnc(-c3ccccc3)c2)[C@@H](C)O)CCNC(=O)[C@H]([C@@H](C)O)NC(=O)[C@H](CCN)NC(=O)[C@H](CCN)NC1=O [Example 11] (X23-[Dab]T[Dap][Dab][Dab][dF]L[Dab][Dab]T; lactam 4-C) | 8 | 2 | 0.25 | 2 | 0.25 | 4 | 0.125 | 84
9 | CC(C)C[C@@H]1NC(=O)[C@@H](Cc2ccccc2)NC(=O)[C@H](CCN)NC(=O)[C@@H](NC(=O)[C@H](CN)NC(=O)[C@@H](NC(=O)[C@H](CCN)NC(=O)c2ccc(F)c(-c3ccc(C#N)cn3)c2)[C@@H](C)O)CCNC(=O)[C@H]([C@@H](C)O)NC(=O)[C@H](CCN)NC(=O)[C@H](CCN)NC1=O [Example 24] (X9-[Dab]T[Dap][Dab][Dab][dF]L[Dab][Dab]T; lactam 4-C) | 16 | 4 | 0.5 | 4 | 1 | 8 | 0.25 | > 100

— patent US20120316105A1, “Polymyxin Derivates Useful As Antibacterial Agents” (priority 2011, published 2012)
